Test results published in EP4725957A1, “GROUP OF CYCLIC ALKALINE LIPOPEPTIDE COMPOUNDS, AND PREPARATION METHOD THEREFOR AND USE THEREOF” (Institute of Medicinal Biotechnology, Chinese Academy of …, priority 2023, dated 2024).
In brackets after ≈: the same amount, converted by molar mass. Bridge positions count the residues as written; N and C are the ends. Square brackets hold non-standard residues; d marks the D form. Peptide text beside a SMILES is read from it. * marks the point of attachment. Heptanoyl(6-Me) = CC(C)CCCCC(=O)*; dDap = NC[C@@H](N)C(=O)O; Dab = NCC[C@H](N)C(=O)O

Assays:
[1] = test system: Acinetobacter baumannii ABA19-1; assay type: cell-based; details: Acinetobacter baumannii ABA19-1
How it was run: (§1)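 Minimal inhibitory concentrations are measured following CLSI microdilution guidance in MH broth. Test concentrations run from 64 down to 0.03 mg/L in doubling steps, with a final bacterial load of (2-4) × 10^5 CFU/mL and 16-20 h incubation at 35-37°C.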

[2] = test system: Acinetobacter baumannii NCTC 13304 (OXA-27); assay type: cell-based; details: Acinetobacter baumannii NCTC 13304 (OXA-27)
How it was run: as §1

[3] = test system: Escherichia coli ATCC BAA-2340 (KPC); assay type: cell-based; details: Escherichia coli ATCC BAA-2340 (KPC)
How it was run: as §1

[4] = test system: Escherichia coli ATCC BAA-2523; assay type: cell-based; details: Escherichia coli ATCC BAA-2523
How it was run: as §1

[5] = test system: Klebsiella pneumoniae ATCC BAA-1705 (KPC); assay type: cell-based; details: Klebsiella pneumoniae ATCC BAA-1705 (KPC)
How it was run: as §1

[6] = test system: Klebsiella pneumoniae KPN+19-15; assay type: cell-based; details: Klebsiella pneumoniae KPN 19-15
How it was run: as §1

[7] = test system: Pseudomonas aeruginosa ATCC 27853; assay type: cell-based; details: Pseudomonas aeruginosa ATCC27853
How it was run: as §1

[8] = test system: Pseudomonas aeruginosa PAE19-3; assay type: cell-based; details: Pseudomonas aeruginosa PAE19-3
How it was run: as §1

[9] = test system: Pseudomonas aeruginosa ATCC27853; assay: In vivo antibacterial (protection) test in infected mice; details: infected ICR mice, 7 days observation
Text: Pseudomonas aeruginosa ATCC27853 was selected for the determination of in vivo antibacterial activity.
One day before infection, the test bacteria were inoculated onto the corresponding nutrient agar plates and cultured overnight. On the day of infection, single colonies grown on the plates were picked and suspended in sterile normal saline, and the suspension was mixed thoroughly to obtain the original bacterial solution. The bacterial solution was then adjusted to the required concentration with 5% dried yeast powder and prepared freshly prior to use.
Healthy ICR mice were randomly divided into groups, with 5 mice per group, half male and half female. Bacterial solutions of different dilutions were aspirated and injected intraperitoneally into mice at a volume of 0.5 mL per 20 g of body weight. The mortality of mice was recorded within 7 days after infection. The minimum bacterial dose causing 100% mortality in mice was defined as the minimum lethal dose (MLD), which was used as the infection dose for the in vivo protection test.
Drug administration was performed via tail vein injection at 2 h, 8 h, 24 h, and 30 h after infection, with a total of 4 administrations, and the administration volume was 20 mL/kg. For the preparation of drug solutions, Compound 7, together with the control drugs polymyxin B and meropenem, were dissolved in normal saline to the required concentrations for tail vein injection, and all solutions were prepared freshly prior to use.
In the preliminary test, the drug dose concentrations that caused 100% mortality and no mortality in mice after infection with the tested bacteria were determined. Based on this dose range, 4-5 dose groups were established, with a dose ratio of 1:0.5 to 1:0.8 between adjacent groups.
Mice were randomly grouped according to body weight, with 8 mice per group (half male and half female). Each mouse was intraperitoneally infected with the test bacterial solution at a volume of 0.5 mL per 20 g of body weight, followed by tail vein injection at 2 h, 8 h, 24 h, and 30 h after infection. Mice in the blank control group were not infected with bacterial solution but were only given an equal volume of vehicle at an administration volume of 20 mL/kg. The mortality of mice was observed and recorded for 7 consecutive days.
The minimum lethal bacterial concentration of Pseudomonas aeruginosa ATCC27853 for intraperitoneal infection in mice was 4.2 × 10^2 CFU/mL, which was used as the infection dose in the formal test.
Mice in the infection control group were intraperitoneally inoculated with Pseudomonas aeruginosa ATCC27853 bacterial solution at the MLD concentration ([…]). Infection symptoms began to appear 3-4 hours after inoculation, and all 8 animals died within 48 hours (8/8), with a mortality rate of 100%.

[10] = Nephrotoxicity assay: in vitro cytotoxicity of HK-2 cells by CCK-8 assay; assay type: cell-based; details: human, HK-2 cells (human renal), 72 h incubation with drug-containing medium
How it was run: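 HK-2 human renal cells in RPMI-1640 with 10% FBS were exposed to compounds at final 12.5–500 µg/mL for 72 h, then CCK-8 for 3 h and OD450 read. Viability was normalised to drug-free wells; IC50 came from logarithmic regression over three repeats, with polymyxin B as positive drug.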

[11] = Acute toxicity test in healthy mice, single tail vein injection; assay type: in vivo; details: mouse, in vivo, iv; ICR mice, single tail vein injection, Bliss method
Protocol: (§2) Healthy ICR mice aged 5-6 weeks were selected, with 5-10 mice in each group, and administered via a single tail vein injection at an administration volume of 20 mL/kg. In the preliminary test, the drug dose concentrations that caused 100% mortality and no mortality in mice after a single intravenous injection were determined. Based on this dose range, 4-5 dose groups were set up, with a dose ratio of 1:0.5 to 1:0.8 between adjacent groups. The mortality of animals within 7 days after administration was recorded. According to the mortality rate of experimental animals in each group, the median lethal dose (LD50) of the test samples, i.e., the dose causing 50% mortality of the tested animals, was calculated by the Bliss method.

[12] = test system: Healthy ICR mice; assay: as above; assay type: in vivo; details: within 7 days
Protocol: as §2

Row | Compound | MIC [1] [µg/mL] | MIC [2] [µg/mL] | MIC [3] [µg/mL] | MIC [4] [µg/mL] | MIC [5] [µg/mL] | MIC [6] [µg/mL] | MIC [7] [µg/mL] | MIC [8] [µg/mL] | mortality rate ([9]; 0.7 mg/kg tail vein twice daily for 2 days) [%] | mortality rate ([9]; 1.0 mg/kg tail vein twice daily for 2 days) [%] | mortality rate ([9]; 1.4 mg/kg tail vein twice daily for 2 days) [%] | mortality rate ([9]; 2 mg/kg tail vein twice daily for 2 days) [%] | IC50 at 72 h [10] [µg/mL] | LD50 at 168 h [11] [mg/kg] | mortality rate ([12]; single tail vein injection 15.36 mg/kg) [%] | mortality rate ([12]; single tail vein injection 19.2 mg/kg) [%] | mortality rate ([12]; single tail vein injection 24 mg/kg) [%] | mortality rate ([12]; single tail vein injection 30 mg/kg) [%]
1 | Polymyxin B [reference compound] | 0.25 | 0.06 | 0.03 | 0.03 | 0.125 | 0.125 | 0.25 | 0.25 | 100 | 100 | 87.5 | 62.5 | – | – | – | – | – | –
2 | CC(C)CCCCC(=O)N[C@@H](CCN)C(=O)N[C@H](C(=O)N[C@H](CN)C(=O)N[C@H]1CCNC(=O)[C@H]([C@@H](C)O)NC(=O)[C@H](CCN)NC(=O)[C@H](CCN)NC(=O)[C@H]([C@@H](C)O)NC(=O)[C@@H](Cc2ccccc2)NC(=O)[C@H](CCN)NC1=O)[C@@H](C)O [Compound 2, 6-methylheptanoyl-Dab-Thr-D-Dap-ring(4-10)[Dab-Dab-D-Phe-Thr-Dab-Dab-Thr]] ({Heptanoyl(6-Me)}-[Dab]T[dDap][Dab][Dab][dF]T[Dab][Dab]T; lactam 4-C) | ≤0.03 | ≤0.03 | ≤0.03 | ≤0.03 | ≤0.03 | ≤0.03 | ≤0.03 | 0.125 (≈ 0.107 µM) | – | – | – | – | > 500 | 22 | 0 | 25 | 62.5 | 100
